Laboratory results from ChEMBL document CHEMBL3286240, “Inhibition of Enterococcus faecalis biofilm formation by highly active lactones and lactams analogues of rubrolides” (Eur J Med Chem, 2014).
Values after ≈ are worked out from the molar mass of the structure shown.

Key:
Enterococcus faecalis [1] = experiment: Antimicrobial activity against Enterococcus faecalis assessed as bacterial growth at 0.68 ug/ml after 20 hrs by microtiter plate assay; format: functional
Enterococcus faecalis [2] = experiment: Antimicrobial activity against Enterococcus faecalis assessed as bacterial growth at 0.17 ug/ml after 20 hrs by microtiter plate assay; format: functional
Enterococcus faecalis [3] = experiment: Antimicrobial activity against Enterococcus faecalis assessed as bacterial growth at 87.5 ug/ml after 20 hrs by microtiter plate assay; format: functional
Enterococcus faecalis [4] = experiment: Antimicrobial activity against Enterococcus faecalis assessed as bacterial growth at 43.8 ug/ml after 20 hrs by microtiter plate assay; format: functional
Enterococcus faecalis [5] = experiment: Antimicrobial activity against Enterococcus faecalis assessed as bacterial growth at 10.9 ug/ml after 20 hrs by microtiter plate assay; format: functional
Enterococcus faecalis [6] = experiment: Antimicrobial activity against Enterococcus faecalis assessed as bacterial growth at 2.73 ug/ml after 20 hrs by microtiter plate assay; format: functional
Enterococcus faecalis [7] = experiment: Antimicrobial activity against Enterococcus faecalis assessed as bacterial growth at 5.5 ug/ml after 20 hrs by microtiter plate assay; format: functional
Enterococcus faecalis [8] = experiment: Antimicrobial activity against Enterococcus faecalis assessed as bacterial growth at 21.9 ug/ml after 20 hrs by microtiter plate assay; format: functional
Enterococcus faecalis [9] = experiment: Antimicrobial activity against Enterococcus faecalis assessed as inhibition of biofilm formation after 20 hrs by crystal violet staining analysis; format: functional, organism-based
Enterococcus faecalis [10] = experiment: Antimicrobial activity against Enterococcus faecalis assessed as bacterial growth at 0.34 ug/ml after 20 hrs by microtiter plate assay; format: functional
Enterococcus faecalis [11] = experiment: Antimicrobial activity against Enterococcus faecalis assessed as bacterial growth at 1.37 ug/ml after 20 hrs by microtiter plate assay; format: functional

SMILES | Activity (Enterococcus faecalis [1]) [%] | Activity (Enterococcus faecalis [2]) [%] | Activity (Enterococcus faecalis [3]) [%] | Activity (Enterococcus faecalis [4]) [%] | Activity (Enterococcus faecalis [5]) [%] | Activity (Enterococcus faecalis [6]) [%] | Activity (Enterococcus faecalis [7]) [%] | Activity (Enterococcus faecalis [8]) [%] | IC50 (Enterococcus faecalis [9]) [µg/mL] | Activity (Enterococcus faecalis [10]) [%] | Activity (Enterococcus faecalis [11]) [%]
COc1ccc(C)cc1C1=C(Br)C(=O)N(CC(C)C)C1(O)Cc1ccccc1Cl (stereo not given) | -12.4 | -3.7 | 86.4 | 63.4 | 43.8 | 35.4 | 41.6 | 46 | 1.07 (≈ 2.23 µM) | -15.6 | 19.1
COc1ccc(Br)cc1C1=C(Br)C(=O)N(CC(C)C)C1(O)Cc1cccc(Cl)c1 (stereo not given) | -0.8 | 1.3 | 48.7 | 30.3 | 6.5 | -4.4 | -2.1 | 9.3 | > 87.5 | -4.7 | 1.3
COc1ccc(Cl)cc1C1=C(Br)C(=O)O/C1=C\c1ccccc1Br | -3.4 | 0.8 | 68.7 | 47 | 33.2 | 23.8 | 36.3 | 47.5 | > 87.5 | -4.7 | -0.8
COc1ccccc1C1=C(Br)C(=O)O/C1=C\c1ccc(C(F)(F)F)cc1 | -9.1 | -4.5 | 66.5 | 46.3 | 15.2 | -4.8 | 7.1 | 26 | – | -6.7 | -7.6
COc1cccc(/C=C2/C(c3cc(Cl)ccc3OC)=C(Br)C(=O)N2CC(C)C)c1 | 5.9 | 0.2 | 94.6 | 55.6 | 39.3 | 29.1 | 42.5 | 45.7 | 1.46 (≈ 3.06 µM) | 2.5 | 21
COc1ccc(Br)cc1C1=C(Br)C(=O)N(CC(C)C)C1(O)Cc1ccc(Br)cc1 (stereo not given) | 6.3 | -8 | 42.4 | 28.1 | 10.4 | 8.9 | 8.4 | 15.8 | 33.4 (≈ 56.8 µM) | 10 | 3.2
COc1ccc(C)cc1C1=C(Br)C(=O)N(CC(C)C)/C1=C/c1ccccc1Cl | -1 | -1.5 | 82 | 58.8 | 36.1 | 27.8 | 36.6 | 46.9 | 1.04 (≈ 2.26 µM) | -1.8 | 15.7
COc1ccc(C)cc1C1=C(Br)C(=O)O/C1=C\c1cccc(Cl)c1 | -4.7 | -6.4 | 55.8 | 39.6 | 17.7 | 9.8 | 17.4 | 19.4 | 1.51 (≈ 3.72 µM) | -7.9 | 9.1
COc1ccc(Cl)cc1C1=C(Br)C(=O)N(CC(C)C)C1(O)Cc1ccccc1Br (stereo not given) | -10.6 | -5.1 | 78 | 53.9 | 36.7 | 30.2 | 32.4 | 38.4 | 1.29 (≈ 2.37 µM) | -1.9 | 19.3
COc1ccc(C)cc1C1=C(Br)C(=O)N(CC(C)C)/C1=C\c1cccc(Cl)c1 | 11.6 | 6 | 64.5 | 61.8 | 34.4 | 14.5 | 31.1 | 46.8 | 62.6 (≈ 136 µM) | 6.9 | 11.9
COc1ccccc1C1=C(Br)C(=O)N(CC(C)C)/C1=C/c1ccc(C(F)(F)F)cc1 | 2.3 | 3.3 | -18.9 | 17.5 | 11.1 | 10.9 | 9.2 | 15.8 | 2.96 (≈ 6.16 µM) | 0.4 | 1.6
COc1cccc(/C=C2\C(c3cc(Cl)ccc3OC)=C(Br)C(=O)N2CC(C)C)c1 | -6 | -9.4 | 56.3 | 33.5 | 20.8 | 8.1 | 33.7 | 30.1 | 3.26 (≈ 6.84 µM) | -6.4 | -4.8
COc1ccc(Br)cc1C1=C(Br)C(=O)N(CC(C)C)/C1=C\c1ccc(Br)cc1 | -1.3 | -2.2 | 82.8 | 59.7 | 55.9 | 33.9 | 43 | 58.1 | 6.62 (≈ 11.6 µM) | 0.3 | 17.5
COc1ccccc1C1=C(Br)C(=O)N(CC(C)C)/C1=C\c1ccc(C(F)(F)F)cc1 | -10.2 | -2.4 | 45 | 11.2 | -4.2 | -6.6 | -8 | 4 | 12 (≈ 25 µM) | -10.4 | -5.2
COc1ccc(C)cc1C1=C(Br)C(=O)N(CC(C)C)/C1=C/c1cccc(Cl)c1 | 1.4 | 0.4 | 81.4 | 38.4 | 19.4 | 5 | 10.5 | 31.8 | 59.3 (≈ 129 µM) | 6.8 | 1.4
COc1cccc(/C=C2\OC(=O)C(Br)=C2c2cc(Cl)ccc2OC)c1 | -5.6 | -1.5 | 40.5 | 24.1 | 9.2 | 11.8 | 9.7 | 19.7 | 53.1 (≈ 126 µM) | -4.1 | 0.3
COc1ccc(Cl)cc1C1=C(Br)C(=O)N(CC(C)C)/C1=C\c1ccccc1Br | 19.2 | -4.1 | 100.8 | 70 | 53.3 | 44.9 | 35.1 | 61.5 | 1.48 (≈ 2.82 µM) | 0 | 45.1
COc1ccc(C)cc1C1=C(Br)C(=O)N(CC(C)C)C1(O)Cc1cccc(Cl)c1 (stereo not given) | 3.3 | -2.5 | 53.1 | 36.8 | 5.8 | 4.8 | 4.2 | 24.9 | > 87.5 | 0.7 | 2.1
COc1ccc(Br)cc1C1=C(Br)C(=O)O/C1=C\c1cccc(Cl)c1 | 4.8 | 7.2 | 72.1 | 38.8 | 18.4 | 16 | 14.9 | 34.8 | 6.91 (≈ 14.7 µM) | 0.8 | 14.4
COc1ccc(Br)cc1C1=C(Br)C(=O)N(CC(C)C)/C1=C\c1cccc(Cl)c1 | 17.9 | 9.3 | 94.2 | 26.3 | 20 | 27 | 21.8 | 20.4 | 3.31 (≈ 6.3 µM) | 12.1 | 25.1
COc1ccc(Cl)cc1C1=C(Br)C(=O)N(CC(C)C)/C1=C/c1ccccc1Br | 9.1 | 0.5 | 60.9 | 43.4 | 42.7 | 33.3 | 43.4 | 32.4 | 0.76 (≈ 1.45 µM) | 7.4 | 19.2
COc1ccccc1C1=C(Br)C(=O)N(CC(C)C)C1(O)Cc1ccc(C(F)(F)F)cc1 (stereo not given) | 11.3 | 1.9 | -24.6 | -1.2 | 22.7 | 8.4 | 18.1 | -7 | – | 1.7 | 3.4
COc1ccc(C)cc1C1=C(Br)C(=O)O/C1=C\c1ccccc1Cl | 33.9 | 21 | 63.8 | 28.8 | 5.1 | 19.9 | 19.1 | 18.2 | – | 29.9 | 27.1
